Data as given in ChEMBL document CHEMBL4392880, “Bioactive Diterpenoids from the Stems of Euphorbia antiquorum” (J Nat Prod, 2019).

Experiments:
[1] = system: BV-2; assay: Cytotoxicity against mouse BV2 cells assessed as effect on cell survival by MTT assay; type: cell-based
[2] = system: BV-2; assay: Antiinflammatory activity in mouse BV2 cells assessed as inhibition of LPS-induced nitric oxide production incubated for 24 hrs by Griess assay; type: functional, cell-based; conditions: BV-2, 24 h

Structure (SMILES) | Activity [1] | IC50 [2] [µM]
C=C1C[C@@]23CC[C@H]4[C@@](C)(CCC(=O)[C@@]4(C)COC(C)=O)[C@@H]2C[C@@H]1[C@@H](O)C3=O | Non-Toxic | > 100
CC1(C)CCC[C@]2(C)[C@@H]1CC[C@@]13O[C@@H]1C1=C(CO)C(=O)OC1=C[C@@H]23 | Non-Toxic | 9.1
CCCC(=O)OC[C@]1(C)C(=O)CC[C@@]2(C)[C@@H]3CC[C@@H]4C[C@@]3(CC[C@@H]21)C[C@@]4(O)CO | Non-Toxic | 42.9
C=C1C[C@@]23CC[C@H]4[C@@](C)(CCC(=O)[C@@]4(C)COC(=O)/C(C)=C/C)[C@@H]2C[C@@H]1CC3=O | Non-Toxic | 28.8
C=C1C[C@@]23CC[C@H]4[C@@](C)(CCC(=O)[C@@]4(C)COC(=O)CCC)[C@@H]2C[C@@H]1[C@@H](O)C3=O | Non-Toxic | > 100
CC(=O)O[C@H]1CCC(C)(C)[C@H]2CC[C@@]34O[C@@H]3C3=C(C)C(=O)O[C@@H]3C[C@H]4[C@]12C | Non-Toxic | 24.1
CCCC(=O)OC[C@]1(C)C(=O)CC[C@@]2(C)[C@@H]3C[C@@H]4CC[C@@]3(CC[C@@H]21)C[C@@]4(O)CO | Non-Toxic | 42.4
C=C1C[C@]23CC[C@H]1C[C@H]2[C@]1(C)CCC(=O)[C@@](C)(CO)[C@H]1CC3 | Non-Toxic | 25.4
C/C=C(\C)C(=O)O[C@H]1[C@H]2[C@@H]([C@@H](OC(C)=O)[C@@H](C)C(=O)[C@@]34C[C@H](C)[C@H](OC(=O)c5ccccc5)[C@]3(/C=C(\C)[C@H]1O)O4)C2(C)C | Non-Toxic | 14.5
C/C=C(\C)C(=O)O[C@H]1[C@H]2[C@@H]([C@@H](OC(C)=O)[C@@H](C)C(=O)[C@@]34C[C@H](C)[C@H](OC(=O)/C(C)=C/C)[C@]3(/C=C(\C)[C@H]1O)O4)C2(C)C | Non-Toxic | 26.9
CSC(=N)N.O=S(=O)(O)O | Non-Toxic | 3.1
C=C1C[C@@]23CC[C@H]4[C@@](C)(CCC(=O)[C@@]4(C)COC(C)=O)[C@@H]2C[C@@H]1CC3=O | Non-Toxic | 77
CCC(=O)OC[C@]1(C)C(=O)CC[C@@]2(C)[C@@H]3C[C@@H]4CC[C@@]3(CC[C@@H]21)C[C@@]4(O)CO | Non-Toxic | 76.6
C=C[C@]1(C)C=C2CC[C@H]3[C@](C)(C=O)[C@@H](O)CC[C@]3(C)[C@H]2CC1 [SANDARACOPIMARADIENOLAL] | Non-Toxic | > 10
C=C1C[C@@]23CC[C@H]4[C@@](C)(CCC(=O)[C@@]4(C)COC(=O)/C(C)=C/C)[C@@H]2C[C@@H]1[C@@H](O)C3=O | Non-Toxic | 44.3
C/C=C(\C)C(=O)O[C@H]1[C@H]2[C@@H]([C@@H](OC(C)=O)[C@@H](C)C(=O)[C@@]34C[C@H](C)[C@H](OC(C)=O)[C@]3(/C=C(\C)[C@H]1O)O4)C2(C)C | Non-Toxic | > 100
C=C1C[C@@]23CC[C@H]4[C@@](C)(CCC(=O)[C@@]4(C)COC(=O)CCC)[C@@H]2C[C@@H]1CC3=O | Non-Toxic | > 60
CC1=C2[C@H]3O[C@]34CC[C@@H]3C(C)(C)CCC[C@@]3(C)[C@@H]4C[C@H]2OC1=O | Non-Toxic | 15
CC1(C)C(=O)CC[C@]2(C)[C@@H]1CC[C@@]13C[C@H](CC[C@H]12)[C@@](O)(CO)C3 | Non-Toxic | > 100
